Where two headings read alike, the source gives them in different places.
Assays:
[1] = system: Resistant Cotton Melon Aphid (Aphis gossypii); format: in vivo
[2] = system: 2-spotted Spider Mite (Tetranychus urticae); assay: Insecticidal test on 2-spotted spider mite, kidney bean leaf disc with eggs, hatchability of larvae after 6 days; format: in vivo; conditions: 6 days after spraying
Description: Insecticidal Test on 2-spotted Spider Mite (Tetranychus urticae)
A plastic cup having a diameter of 8 cm was filled with water and covered by a lid with a hole having a diameter of 1 cm. Absorbent cotton was put on the top of the lid and dropped into water from the lid such that the absorbent cotton was always in a wet state due to a capillary phenomenon. A leaf disc having a diameter of 2 cm was prepared with primary leaves of kidney beans (cultivar: Green top) and placed on the aforementioned absorbent cotton. 4 adult female insects of Tetranychus urticae were inoculated thereon. Next day, the adult female insects were removed, and then the number of insect egg was examined. A liquid chemical which was prepared to the prescribed concentration was sprayed by using a vertical sprayer. After spraying, the resulting cup was allowed to stand in an isothermal chamber maintained at 25 degree centigrade. After 6 days from spraying, the number of hatched larvae that survived on the leaf disc was examined and the hatchability of larvae was calculated (two replications of one concentration per chemical).

[3] = system: Tiger Moth (Trichoplusia ni); assay: Insecticidal test on tiger moth, cabbage leaf dip, mortality after 6 days; format: in vivo; conditions: 6 days after treatment
Description: Insecticidal Test on Tiger Moth (Trichoplusia ni)
Cut leaves of cabbages (cultivar: shiki-kaku) were immersed in a liquid chemical which was diluted and prepared to the prescribed concentration for 30 seconds, air-dried, and then put into a plastic vessel having a diameter of 9 cm. Each of 10 second-stage insects of Trichoplusia ni was inoculated and the resulting vessel was allowed to stand in an isothermal chamber maintained at 25 degree centigrade. After 6 days from the treatment, the number of surviving insects was examined and the mortality was calculated (two replications of 10 insects per plot).

[4] = system: Green Peach Aphid (Myzus persicae); format: in vivo
[5] = system: Small Brown Planthopper (Laodelphax striatellus); assay: Insecticidal test on small brown planthopper, sprayed rice seedlings, mortality after 6 days; format: in vivo
Description: Insecticidal Test on Small Brown Planthopper (Laodelphax striatellus)
A liquid chemical which was diluted and prepared to the prescribed concentration was sprayed on rice seedlings (cultivar: koshihikari), air-dried, and then 10 three-stage insects of Laodelphax striatellus were put into a glass test tube having a diameter of 3 cm and a height of 10 cm along with the seedlings. The test tube was cotton plugged. After 6 days from the treatment, the number of surviving insects was examined and the mortality was calculated (two replications of 10 insects per plot).

[6] = system: Small Brown Planthopper (Laodelphax striatellus); assay: Control test on small brown planthopper, nursery box application of paddy rice, number of parasitic insects after 40 and 60 days; format: in vivo
Description: (§1) Control Test on Small Brown Planthopper (Laodelphax striatellus) and Rice Leafroller (Cnaphalocrocis medinalis) on Nursery Box Application of Paddy Rice
(§2) Rice (cultivar: Nihonbare) cultured in a nursery box was treated with 50 g of a granule formulation per box, and then transplanted to the rice field. For the control effect against Laodelphax striatellus, the number of parasitic insects was examined for 30 stumps per plot after 40 days and 60 days from the transplantation. In addition, for the control effect against Cnaphalocrocis medinalis, the number of infected leaves was examined for 100 stumps per plot after 50 days from the transplantation, and the infected leaf rate was calculated. In the Table, gai represents the amount of active ingredients (g).

[7] = system: Rice Leafroller (Cnaphalocrocis medinalis); assay: Control test on rice leafroller, nursery box application of paddy rice, infected leaf rate after 50 days; format: in vivo; conditions: 50 days after transplantation
Description: as §1, §2

[8] = system: Common Straight Swift Butterfly (Parnara guttata); assay: Control test on common straight swift butterfly of paddy rice, powder spray, number of insects after 20 days (Test Example 9); format: in vivo; conditions: 20 days after spraying
From the text: (§3) Control Test on Common Straight Swift Butterfly (Parnara guttata) and Sheath Blight (Rhizoctonia solani) of Paddy Rice
(§4) A powder of a prescribed amount was sprayed on rice (cultivar: koshihikari) after 70 days from the transplantation (middle of May) Leaves on which Parnara guttata was parasitic before spraying were eliminated. After 20 days from spraying, the number of insects was examined for 100 stumps in each plot. Furthermore, 7 days before spraying, Rhizoctonia solani cultured on a bran medium was inoculated into the base of the plant. After 30 days from spraying, the number of infected stumps was examined for 100 stumps in each plot and the rate of infected stumps was calculated. In the Table, gai represents the amount of active ingredients (g).

[9] = system: Sheath Blight (Rhizoctonia solani); assay: Control test on sheath blight of paddy rice, powder spray, rate of infected stumps after 30 days; format: in vivo; conditions: 30 days after spraying
From the text: as §3, §4

[10] = system: Rice Striped Stem Borer (Chilo suppressalis)
[11] = system: Rice Blast (Pyricularia oryzae); format: in vivo
[12] = 3 ppm, foliar spray on cucumber, 5 days after spraying
[13] = 3 ppm, foliar spray on eggplant, 5 days after spraying
[14] = 3 ppm, sprayed rice seedlings, 6 days after treatment
[15] = 100 ppm, foliar spray on cucumber, 5 days after spraying
[16] = 100 ppm, foliar spray on eggplant, 5 days after spraying
[17] = Laodelphax striatellus, 144 h, 25 ppm, sprayed rice seedlings, 6 days after treatment
[18] = 250 ppm, foliar spray on cucumber, 5 days after spraying
[19] = 250 ppm, foliar spray on eggplant, 5 days after spraying

Molecule: CN(C(=O)c1ccccc1)c1cccc(C(=O)Nc2c(Br)cc(SC(F)(F)C(F)(F)C(F)(F)F)cc2Br)c1 [Compound 1126]
- Control rate (%) [1, 12]: 3%
- Hatchability of larvae (%) ([2]; 50 ppm): 73%
- Mortality (%) ([3]; 0.5 ppm): 70%
- Control rate (%) [4, 13]: 0%
- Mortality (%) [5, 14]: 10%

Molecule: N#CCNC(=O)c1cnccc1C(F)(F)F [flonicamid]
- Control rate (%) [1, 15]: 97%
- Control rate (%) [4, 16]: 97%
- Mortality (%) ([5]; 20 ppm, sprayed rice seedlings, 6 days after treatment): 95%

Molecule: milbemectin
- Hatchability of larvae (%) ([2]; 5 ppm): 18%

Molecule: Cc1cc(C(F)(C(F)(F)F)C(F)(F)F)cc(C)c1NC(=O)c1cccc(N(C)C(=O)c2cccnc2)c1F [Compound 1244]
- Laodelphax striatellus Number of parasitic insects/30 stumps ([6]; 5 gai/box, 40 days): 72 insects/30 stumps
- Laodelphax striatellus Number of parasitic insects/30 stumps ([6]; 5 gai/box, 60 days): 132 insects/30 stumps
- Cnaphalocrocis medinalis Infected leaf rate (%) ([7]; 5 gai/box): 0.25%

Molecule: CCCCCCCCCCCCC1=C(OC(C)=O)C(=O)c2ccccc2C1=O [acequinocyl]
- Hatchability of larvae (%) ([2]; 5 ppm): 29%

Molecule: CC(C)Oc1cccc(NC(=O)c2ccccc2C(F)(F)F)c1 [flutolanil]
- Number of insects (number/100 stumps) ([8]; 80 gai/10a): 153 number/100 stumps
- Rate of infected stumps (%) ([9]; 80 gai/10a): 2%

Molecule: N#Cc1nn(-c2c(Cl)cc(C(F)(F)F)cc2Cl)c(N)c1[S+]([O-])C(F)(F)F (centres unmarked) [fipronil]
- mortality at 0.5 ppm ([3]; Trichoplusia, foliar, 144 h, 0.5 ppm): 55%

Molecule: CN/C(=N/CC1CCOC1)N[N+](=O)[O-] (centres unmarked) [dinotefuran]
- Control rate (%) ([1]; in vivo): 98%
- mortality at 3 ppm ([3]; Trichoplusia, foliar, 144 h, 3 ppm): 40%
- Control rate (%) ([4]; in vivo): 99%
- mortality at 5 ppm ([5]; Laodelphax striatellus, 144 h, 5 ppm, sprayed rice seedlings, 6 days after treatment): 95%

Molecule: C[C@@H](NC(=O)C(C#N)C(C)(C)C)c1ccc(Cl)cc1Cl (some centres unmarked) [diclocymet]
- Chilo suppressalis Mortality (%) ([10]; 1.5 gai/box): 0%
- Pyricularia oryzae Control value ([11]; 1.5 gai/box): 95

Molecule: spinosad
- Mortality (%) ([3]; 0.1 ppm): 60%

Molecule: CCOC(=O)CCN(SN(C)C(=O)Oc1cccc2c1OC(C)(C)C2)C(C)C [benfuracarb]
- Laodelphax striatellus Number of parasitic insects/30 stumps ([6]; 2.5 gai/box, 40 days): 12 insects/30 stumps
- Laodelphax striatellus Number of parasitic insects/30 stumps ([6]; 2.5 gai/box, 60 days): 31 insects/30 stumps
- Cnaphalocrocis medinalis Infected leaf rate (%) ([7]; 2.5 gai/box): 1.28%

Molecule: O=C(Nc1ccccc1)N(Cc1ccc(Cl)cc1)C1CCCC1 [pencycuron]
- Number of insects (number/100 stumps) ([8]; 60 gai/10a): 159 number/100 stumps
- Rate of infected stumps (%) ([9]; 60 gai/10a): 1%

Molecule: Cc1cccc2sc3nncn3c12 [tricyclazole]
- Chilo suppressalis Mortality (%) ([10]; in vivo): 5%
- Pyricularia oryzae Control value ([11]; 2 gai/box): 95

Molecule: Cc1cc(C(F)(C(F)(F)F)C(F)(F)F)cc(C)c1NC(=O)c1cccc(N(C)C(=O)c2cccc(F)c2)c1F [Compound 1219]
- Control rate (%) [1, 12]: 15%
- Hatchability of larvae (%) ([2]; 50 ppm): 80%
- Mortality (%) ([3]; 0.5 ppm): 65%
- Control rate (%) [4, 13]: 17%
- Mortality (%) [5, 14]: 10%

Molecule: CCOc1ccc([Si](C)(C)CCCc2ccc(F)c(Oc3ccccc3)c2)cc1 [silafluofen]
- mortality at 25 ppm [5, 17]: 95%

Molecule: CCOc1ccc(C(C)(C)COCc2cccc(Oc3ccccc3)c2)cc1 [ethofenprox]
- Control rate (%) [1, 15]: 75%
- Mortality (%) ([3]; 3 ppm): 45%
- Control rate (%) [4, 16]: 98%
- Mortality (%) ([5]; 25 ppm, sprayed rice seedlings, 6 days after treatment): 95%

Molecule: Cc1nn(C)c(Cl)c1C(=O)Nc1cccc2c1C(C)OC2(C)C (centres unmarked) [furametpyr]
- Number of insects (number/100 stumps) ([8]; 20 gai/10a): 161 number/100 stumps
- Rate of infected stumps (%) ([9]; 20 gai/10a): 2%

Molecule: CN(C(=O)c1ccccc1F)c1cccc(C(=O)N(C)c2c(Br)cc(SC(F)(F)C(F)(F)C(F)(F)F)cc2Br)c1 [Compound 1617]
- Control rate (%) [1, 12]: 5%
- Hatchability of larvae (%) ([2]; 50 ppm): 78%
- Mortality (%) ([3]; 0.5 ppm): 75%
- Control rate (%) [4, 13]: 0%
- Mortality (%) [5, 14]: 5%

Molecule: CC1=NNC(=O)N(/N=C/c2cccnc2)C1 [pymetrozine]
- Control rate (%) [1, 15]: 95%
- Control rate (%) [4, 16]: 96%
- mortality at 25 ppm [5, 17]: 95%

Molecule: CC(C)N1C(=O)N(c2ccccc2)CS/C1=N\C(C)(C)C [buprofezin]
- mortality at 25 ppm [5, 17]: 95%

Molecule: CC(C)OC(=O)C(C(=O)OC(C)C)=C1SCCS1 [Isoprothiolane]
- Chilo suppressalis Mortality (%) ([10]; 6 gai/box): 0%
- Pyricularia oryzae Control value ([11]; 6 gai/box): 92

Molecule: CNC(=O)/C(=N/OC)c1ccccc1CO/N=C(C)/C(=N/OC)C(/C)=N/OC [orysastrobin]
- Chilo suppressalis Mortality (%) ([10]; 3.5 gai/box): 5%
- Pyricularia oryzae Control value ([11]; 3.5 gai/box): 93

Molecule: CCC(C)(C)C(=O)OC1=C(c2ccc(Cl)cc2Cl)C(=O)OC12CCCCC2 [spirodiclofen]
- Hatchability of larvae (%) ([2]; 3 ppm): 50%

Molecule: CC[S+]([O-])c1c(C#N)nn(-c2c(Cl)cc(C(F)(F)F)cc2Cl)c1N (centres unmarked) [ethiprole]
- Control rate (%) [1, 15]: 96%
- Control rate (%) [4, 16]: 98%
- mortality at 25 ppm [5, 17]: 90%

Molecule: CNC(=O)ON=C(C)SC [methomyl]
- Control rate (%) [1, 18]: 10%
- Control rate (%) [4, 19]: 96%

Molecule: CC(C)([CH2][Sn]([CH2]C(C)(C)c1ccccc1)([CH2]C(C)(C)c1ccccc1)[O][Sn]([CH2]C(C)(C)c1ccccc1)([CH2]C(C)(C)c1ccccc1)[CH2]C(C)(C)c1ccccc1)c1ccccc1 [fenbutatin oxide]
- Hatchability of larvae (%) ([2]; 25 ppm): 42%

Molecule: Cc1c(Cl)cc(-c2ccc(=O)[nH]n2)cc1Cl [diclomezine]
- Number of insects (number/100 stumps) ([8]; 48 gai/10a): 167 number/100 stumps
- Rate of infected stumps (%) ([9]; 48 gai/10a): 3%

Molecule: COc1ccc(-c2ccccc2)cc1NNC(=O)OC(C)C [bifenazate]
- Hatchability of larvae (%) ([2]; 5 ppm): 60%

Molecule: COP(=S)(OC)Oc1ccc([N+](=O)[O-])c(C)c1 [fenitrothion]
- mortality at 100 ppm ([5]; Laodelphax striatellus, 144 h): 85%

Molecule: CN(C(=O)c1cccc(NC(=O)c2ccccc2)c1)c1c(Br)cc(SC(F)(F)C(F)(F)C(F)(F)F)cc1Br [Compound 1480]
- Control rate (%) [1, 12]: 3%
- Hatchability of larvae (%) ([2]; 50 ppm): 85%
- Mortality (%) ([3]; 0.5 ppm): 75%
- Control rate (%) [4, 13]: 7%
- Mortality (%) [5, 14]: 10%

Molecule: C=CCOC1=NS(=O)(=O)c2ccccc21 [probenazole]
- Chilo suppressalis Mortality (%) ([10]; 12 gai/box): 5%
- Pyricularia oryzae Control value ([11]; 12 gai/box): 94

Molecule: Cc1cc(C(F)(C(F)(F)F)C(F)(F)F)cc(C)c1NC(=O)c1cccc(N(C)C(=O)c2ccc(C#N)cc2)c1F [Compound 1217]
- Control rate (%) [1, 12]: 15%
- Hatchability of larvae (%) ([2]; 50 ppm): 74%
- Chilo suppressalis Mortality (%) ([10]; 5 gai/box): 90%
- Pyricularia oryzae Control value ([11]; in vivo): 7
- Mortality (%) ([3]; 0.5 ppm): 65%
- Control rate (%) [4, 13]: 21%
- Mortality (%) [5, 14]: 15%

Molecule: COP(=O)(NC(C)=O)SC (centres unmarked) [acephate]
- Control rate (%) [1, 18]: 0%
- Control rate (%) [4, 19]: 97%

Molecule: CC(C)(C)c1ccc(CSc2cnn(C(C)(C)C)c(=O)c2Cl)cc1 [pyridaben]
- Hatchability of larvae (%) ([2]; 2 ppm): 48%

Molecule: CCOc1cc(C(C)(C)C)ccc1C1COC(c2c(F)cccc2F)=N1 (centres unmarked) [etoxazol]
- Hatchability of larvae (%) ([2]; 0.1 ppm): 33%

Molecule: Cc1cc(C(F)(C(F)(F)F)C(F)(F)F)cc(C)c1NC(=O)c1cccc(NC(=O)c2cccnc2Cl)c1 [Compound No. 106, N-(2,6-dimethyl-4-heptafluoroisopropyl)phenyl 3-[(2-chloropyridin-3-yl)carbonylamino]benzamide]
- Chilo suppressalis Mortality (%) ([10]; 5 gai/box): 90%
- Pyricularia oryzae Control value ([11]; in vivo): 5

Reference: patent US8163804B2 (priority 2005, dated 2012)
